One assay deals with EGFR wildtype (WT) (Homo sapiens, UniProt P00533). Nature of the assay: Biochemical EGFR kinase assay (Lance Ultra TR-FRET), wildtype. The following applies: Km ATP; read-out: IC50 WT (nM) Km ATP. The protocol: (§1) Biochemical EGFR kinase assays were conducted using Lance Ultra time-resolved fluorescence resonance energy transfer (TR-FRET) technology from Perkin-Elmer. Compounds of the invention were initially diluted to 20 mM in 100% DMSO for storage and made into kinase buffer solution to create a compound concentration ranging from 0.003 μM and 10 μM.
(§2) Each kinase reactions were incubated at room temperature for 1 hour and then stopped by the addition of 4 μL of stop solution (10 mM EDTA). The specific Europium-labeled-anti-phosphopeptide antibody (PerkinElmer, AD0069) diluted in LANCE detection buffer was then added to a final concentration of 2 nM. After 60 minutes incubation at room temperature the LANCE signal was measured on an EnVision Multilabel Reader (Perkin-Elmer). Excitation wavelength was set at 320 nm and emission monitored at 615 nm (donor) and 665 nm (acceptor). The IC50 values were determined using GraphPad prism software (GraphPad Software, Inc., San Diego, CA, USA).
(In general: TR-FRET usually uses a lanthanide donor and a delayed reading to cut background.)

The next assay addresses EGFR del19/C797S (Homo sapiens, UniProt P00533, C797S/DEL746-750). Nature of the assay: Biochemical EGFR kinase assay (Lance Ultra TR-FRET), del19/C797S. The note with it: Km ATP; read-out: IC50 del19/C797S (nM) Km ATP. The protocol: as §1, §2
The target in another assay is EGFR L858R/T790M/C797S (Homo sapiens, UniProt P00533, C797S/L858R/T790M). The experiment in a line: Biochemical EGFR kinase assay (Lance Ultra TR-FRET), L858R/T790M/C797S. The note with it: Km ATP; read-out: IC50 L858R/T790M/C797S (nM) Km ATP. The protocol:
as §1, §2

The target of a further assay is EGFR del19/T790M/C797S (Homo sapiens, UniProt P00533, C797S/DEL746-750/T790M). Nature of the assay: Biochemical EGFR kinase assay (Lance Ultra TR-FRET), del19/T790M/C797S. The note with it: Km ATP; read-out: IC50 del19/T790M/C797S (nM) Km ATP. The protocol: as §1, §2
Sequence of EGFR del19/T790M/C797S (P00533 with tags, fused parts or gaps DEL746-750/T790M/C797S): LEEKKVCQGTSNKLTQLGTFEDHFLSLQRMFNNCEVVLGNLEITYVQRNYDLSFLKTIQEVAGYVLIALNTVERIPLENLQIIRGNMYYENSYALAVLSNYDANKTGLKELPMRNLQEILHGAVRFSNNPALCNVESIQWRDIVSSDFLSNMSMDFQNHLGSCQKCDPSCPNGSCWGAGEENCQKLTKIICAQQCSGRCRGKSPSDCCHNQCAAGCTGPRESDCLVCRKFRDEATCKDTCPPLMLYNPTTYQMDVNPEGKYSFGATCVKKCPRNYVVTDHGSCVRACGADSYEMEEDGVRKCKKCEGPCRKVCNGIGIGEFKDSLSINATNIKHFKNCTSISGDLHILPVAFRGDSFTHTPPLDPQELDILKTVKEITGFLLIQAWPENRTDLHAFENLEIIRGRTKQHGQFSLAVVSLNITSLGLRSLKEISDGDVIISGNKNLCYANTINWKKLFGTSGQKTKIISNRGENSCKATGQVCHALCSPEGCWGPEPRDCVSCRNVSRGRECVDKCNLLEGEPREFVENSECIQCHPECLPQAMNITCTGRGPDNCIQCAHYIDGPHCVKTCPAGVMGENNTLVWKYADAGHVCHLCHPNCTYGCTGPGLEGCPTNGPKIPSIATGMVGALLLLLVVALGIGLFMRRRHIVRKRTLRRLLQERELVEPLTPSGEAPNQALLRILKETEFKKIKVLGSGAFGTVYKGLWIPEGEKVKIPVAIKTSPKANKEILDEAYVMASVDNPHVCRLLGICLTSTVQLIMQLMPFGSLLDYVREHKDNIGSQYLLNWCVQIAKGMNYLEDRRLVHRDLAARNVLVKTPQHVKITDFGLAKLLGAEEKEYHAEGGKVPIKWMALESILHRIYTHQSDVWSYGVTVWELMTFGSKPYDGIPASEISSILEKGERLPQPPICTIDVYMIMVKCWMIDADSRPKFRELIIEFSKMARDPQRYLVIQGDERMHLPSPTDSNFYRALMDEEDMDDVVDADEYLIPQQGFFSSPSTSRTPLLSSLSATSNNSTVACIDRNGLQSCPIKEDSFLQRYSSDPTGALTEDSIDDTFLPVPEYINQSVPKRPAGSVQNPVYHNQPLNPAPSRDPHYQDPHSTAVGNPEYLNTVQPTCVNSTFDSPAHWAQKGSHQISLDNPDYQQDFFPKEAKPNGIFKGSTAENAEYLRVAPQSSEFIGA

Sequence of EGFR L858R/T790M/C797S (P00533 25-1210 T790M/C797S/L858R): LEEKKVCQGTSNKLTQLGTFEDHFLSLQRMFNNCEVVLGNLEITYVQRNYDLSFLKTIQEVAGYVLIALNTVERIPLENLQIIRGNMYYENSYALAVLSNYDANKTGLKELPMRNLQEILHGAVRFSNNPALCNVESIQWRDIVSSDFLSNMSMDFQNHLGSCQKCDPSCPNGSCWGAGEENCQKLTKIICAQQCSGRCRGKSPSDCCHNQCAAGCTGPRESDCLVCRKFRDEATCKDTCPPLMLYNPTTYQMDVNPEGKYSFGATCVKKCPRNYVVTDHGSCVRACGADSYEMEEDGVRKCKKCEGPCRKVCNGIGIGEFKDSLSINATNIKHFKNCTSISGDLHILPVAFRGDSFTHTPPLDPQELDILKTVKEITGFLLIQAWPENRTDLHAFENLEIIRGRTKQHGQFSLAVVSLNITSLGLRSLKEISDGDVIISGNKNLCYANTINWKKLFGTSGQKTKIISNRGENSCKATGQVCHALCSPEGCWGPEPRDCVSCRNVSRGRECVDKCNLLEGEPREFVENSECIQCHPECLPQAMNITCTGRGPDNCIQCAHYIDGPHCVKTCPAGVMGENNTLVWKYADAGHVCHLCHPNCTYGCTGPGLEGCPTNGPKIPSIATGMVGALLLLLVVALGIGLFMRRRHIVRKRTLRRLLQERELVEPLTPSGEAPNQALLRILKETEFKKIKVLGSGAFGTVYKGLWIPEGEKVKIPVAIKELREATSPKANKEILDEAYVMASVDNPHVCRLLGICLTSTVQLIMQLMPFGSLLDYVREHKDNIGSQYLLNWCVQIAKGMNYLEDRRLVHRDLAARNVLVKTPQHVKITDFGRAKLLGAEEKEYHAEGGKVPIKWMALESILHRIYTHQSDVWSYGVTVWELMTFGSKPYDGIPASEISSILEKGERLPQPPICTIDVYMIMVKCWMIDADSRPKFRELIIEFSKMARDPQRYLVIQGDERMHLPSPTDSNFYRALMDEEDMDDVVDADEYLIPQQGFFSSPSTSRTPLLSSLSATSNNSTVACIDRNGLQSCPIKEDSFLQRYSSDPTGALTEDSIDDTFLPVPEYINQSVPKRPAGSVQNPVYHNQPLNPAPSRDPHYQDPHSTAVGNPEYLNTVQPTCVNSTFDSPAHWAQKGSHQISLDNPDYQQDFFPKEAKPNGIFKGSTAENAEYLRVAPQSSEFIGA
Sequence of EGFR del19/C797S (P00533 with tags, fused parts or gaps DEL746-750/C797S): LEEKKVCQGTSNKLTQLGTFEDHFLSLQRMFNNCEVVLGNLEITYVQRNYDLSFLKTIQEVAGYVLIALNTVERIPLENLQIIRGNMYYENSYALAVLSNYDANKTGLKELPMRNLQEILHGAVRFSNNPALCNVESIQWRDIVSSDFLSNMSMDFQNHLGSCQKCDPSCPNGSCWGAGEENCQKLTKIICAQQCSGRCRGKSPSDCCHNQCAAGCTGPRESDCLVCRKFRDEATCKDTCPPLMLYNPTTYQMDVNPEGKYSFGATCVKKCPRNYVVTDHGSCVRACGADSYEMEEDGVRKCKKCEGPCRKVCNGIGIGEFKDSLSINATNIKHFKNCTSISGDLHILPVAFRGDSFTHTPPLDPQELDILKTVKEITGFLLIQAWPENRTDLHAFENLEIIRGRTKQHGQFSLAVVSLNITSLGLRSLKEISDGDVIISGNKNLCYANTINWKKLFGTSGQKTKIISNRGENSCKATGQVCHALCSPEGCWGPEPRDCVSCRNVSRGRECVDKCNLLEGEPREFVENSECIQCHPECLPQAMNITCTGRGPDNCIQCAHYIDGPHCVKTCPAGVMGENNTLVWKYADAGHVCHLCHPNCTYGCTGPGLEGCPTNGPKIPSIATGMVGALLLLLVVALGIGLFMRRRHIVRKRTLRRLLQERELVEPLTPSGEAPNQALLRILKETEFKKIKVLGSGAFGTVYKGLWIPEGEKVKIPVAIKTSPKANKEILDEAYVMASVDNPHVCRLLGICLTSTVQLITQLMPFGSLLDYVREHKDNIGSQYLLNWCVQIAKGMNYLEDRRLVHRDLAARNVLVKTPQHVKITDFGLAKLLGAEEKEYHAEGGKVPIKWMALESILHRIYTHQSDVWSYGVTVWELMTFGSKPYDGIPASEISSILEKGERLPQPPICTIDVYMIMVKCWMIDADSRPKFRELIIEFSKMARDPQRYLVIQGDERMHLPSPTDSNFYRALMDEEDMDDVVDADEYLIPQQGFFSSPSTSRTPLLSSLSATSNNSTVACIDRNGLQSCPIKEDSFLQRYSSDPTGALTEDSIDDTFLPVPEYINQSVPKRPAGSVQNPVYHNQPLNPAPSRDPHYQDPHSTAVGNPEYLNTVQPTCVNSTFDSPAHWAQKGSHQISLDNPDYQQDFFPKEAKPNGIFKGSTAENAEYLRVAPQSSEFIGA
Sequence of EGFR wildtype (WT) (P00533 25-1210): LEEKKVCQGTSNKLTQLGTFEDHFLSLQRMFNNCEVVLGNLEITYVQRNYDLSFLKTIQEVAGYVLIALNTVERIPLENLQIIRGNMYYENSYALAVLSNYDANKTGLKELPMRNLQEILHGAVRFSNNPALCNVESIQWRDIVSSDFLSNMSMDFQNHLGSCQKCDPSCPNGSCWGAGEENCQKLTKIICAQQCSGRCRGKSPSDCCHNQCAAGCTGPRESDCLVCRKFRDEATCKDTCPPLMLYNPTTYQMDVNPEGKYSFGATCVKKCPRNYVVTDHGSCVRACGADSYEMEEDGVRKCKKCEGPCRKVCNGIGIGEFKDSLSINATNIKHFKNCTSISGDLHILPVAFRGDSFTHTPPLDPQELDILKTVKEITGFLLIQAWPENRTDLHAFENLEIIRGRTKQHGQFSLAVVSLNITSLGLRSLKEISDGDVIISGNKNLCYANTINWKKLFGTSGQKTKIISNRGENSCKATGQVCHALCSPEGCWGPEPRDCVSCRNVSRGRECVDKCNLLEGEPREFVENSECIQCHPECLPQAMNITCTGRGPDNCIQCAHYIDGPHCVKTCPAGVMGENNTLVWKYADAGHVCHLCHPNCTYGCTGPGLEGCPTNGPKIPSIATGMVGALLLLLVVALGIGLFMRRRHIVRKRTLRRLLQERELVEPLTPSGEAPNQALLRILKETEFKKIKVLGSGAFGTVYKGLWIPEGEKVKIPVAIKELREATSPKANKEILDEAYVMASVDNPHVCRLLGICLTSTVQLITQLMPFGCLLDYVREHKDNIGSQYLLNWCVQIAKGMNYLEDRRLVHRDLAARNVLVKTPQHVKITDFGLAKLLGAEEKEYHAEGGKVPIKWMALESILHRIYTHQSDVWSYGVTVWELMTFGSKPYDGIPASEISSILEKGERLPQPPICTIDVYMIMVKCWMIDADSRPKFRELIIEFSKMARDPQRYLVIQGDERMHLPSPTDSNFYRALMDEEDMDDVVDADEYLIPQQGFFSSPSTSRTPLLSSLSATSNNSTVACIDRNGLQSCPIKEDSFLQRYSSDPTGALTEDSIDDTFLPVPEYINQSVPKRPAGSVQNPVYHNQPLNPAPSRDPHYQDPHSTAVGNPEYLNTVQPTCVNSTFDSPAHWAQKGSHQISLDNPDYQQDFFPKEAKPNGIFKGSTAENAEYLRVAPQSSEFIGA

Turning to `CN(C)CCNc1cc(Nc2ccnc(-c3cnn(S(=O)(=O)C4CC4)c3)n2)ncc1C(=O)C1CC1` [Example 14, Cyclopropyl(6-((2-(1-(cyclopropylsulfonyl)-1H-pyrazol-4-yl)pyrimidin-4-yl)amino)-4-((2-(dimethylamino)ethyl)amino)pyridin-3-yl)methanone], the IC50 was determined as 3400 nM on EGFR wildtype (WT), 459 nM on EGFR del19/C797S, 31.9 nM at EGFR L858R/T790M/C797S and 4.7 nM at EGFR del19/T790M/C797S.
On to `CN(C)CC1CCC(CNc2cc(Nc3ccnc(-c4cnn(C5CCOC5)c4)n3)ncc2C(=O)C2CC2)CC1` (stereo not shown) [Example 62, Cyclopropyl(4-((((1r,4r)-4-((dimethylamino)methyl)cyclohexyl)methyl)amino)-6-((2-(1-(tetrahydrofuran-3-yl)-1H-pyrazol-4-yl)pyrimidin-4-yl)amino)pyridin-3-yl)methanone], for which the IC50 turned out to be 363 nM on EGFR del19/C797S, 9.4 nM on EGFR L858R/T790M/C797S and 9.8 nM at EGFR del19/T790M/C797S.
Take `O=C(c1cnc(Nc2ccnc(-c3cnn(S(=O)(=O)C4CC4)c3)n2)cc1NC[C@H]1CC[C@H](Cn2cccn2)CC1)C1CC1` [Example 44, (4-((((1r,4r)-4-((1H-Pyrazol-1-yl)methyl)cyclohexyl)methyl)amino)-6-((2-(1-(cyclopropylsulfonyl)-1H-pyrazol-4-yl)pyrimidin-4-yl)amino)pyridin-3-yl)(cyclopropyl)methanone]: the IC50 on EGFR wildtype (WT) turned out to be 796 nM; on EGFR del19/C797S it was 242 nM; at EGFR del19/T790M/C797S, 9 nM.
`O=C(c1cnc(Nc2ccnc(-c3cnn(S(=O)(=O)C4CC4)c3)n2)cc1NCC1CCCCO1)C1CC1` (stereo not shown) [Example 10, Cyclopropyl(6-((2-(1-(cyclopropylsulfonyl)-1H-pyrazol-4-yl)pyrimidin-4-yl)amino)-4-(((tetrahydro-2H-pyran-2-yl)methyl)amino)pyridin-3-yl)methanone]: the IC50 is 1170 nM at EGFR wildtype (WT), 553 nM on EGFR del19/C797S, 13.7 nM at EGFR L858R/T790M/C797S and 2.1 nM on EGFR del19/T790M/C797S.
For the compound `C[C@H](CCO)Nc1cc(Nc2ccnc(-c3cnn(S(=O)(=O)C4CC4)c3)n2)ncc1C(=O)C1CC1` [Example 7, (R)-Cyclopropyl(6-((2-(1-(cyclopropylsulfonyl)-1H-pyrazol-4-yl)pyrimidin-4-yl)amino)-4-((4-hydroxybutan-2-yl)amino)pyridin-3-yl)methanone], the IC50 on EGFR wildtype (WT) is 426 nM; on EGFR del19/C797S, 49.2 nM; at EGFR L858R/T790M/C797S, 2.7 nM; on EGFR del19/T790M/C797S, 0.5 nM.
Regarding `O=C(c1cnc(Nc2ccnc(-c3cnn(S(=O)(=O)C4CC4)c3)n2)cc1NCCC1CCOC1)C1CC1` (stereo not shown) [Example 6, Cyclopropyl(6-((2-(1-(cyclopropylsulfonyl)-1H-pyrazol-4-yl)pyrimidin-4-yl)amino)-4-((2-(tetrahydrofuran-3-yl)ethyl)amino)pyridin-3-yl)methanone], the IC50 at EGFR wildtype (WT) amounted to 890 nM; at EGFR del19/C797S it was 78 nM; at EGFR L858R/T790M/C797S it was 4.5 nM; at EGFR del19/T790M/C797S it was 0.6 nM.
Consider `CN(C)C[C@H]1CC[C@H](CNc2cc(Nc3ccnc(-c4cnn(S(=O)(=O)C5CC5)c4)n3)ncc2C(=O)N2CC(F)(F)C2)CC1` [Example 82, (6-((2-(1-(Cyclopropylsulfonyl)-1H-pyrazol-4-yl)pyrimidin-4-yl)amino)-4-((((1r,4r)-4-((dimethylamino)methyl)cyclohexyl)methyl)amino)pyridin-3-yl)(3,3-difluoroazetidin-1-yl)methanone], for which the IC50 on EGFR wildtype (WT) amounted to 76.2 nM; on EGFR del19/C797S, 24.6 nM; at EGFR del19/T790M/C797S it was 2.8 nM.
Take `O=C(c1cnc(Nc2ccnc(-c3cnn(S(=O)(=O)C4CC4)c3)n2)cc1NC1CC1)C1CC1` [Example 2, Cyclopropyl(4-(cyclopropylamino)-6-((2-(1-(cyclopropylsulfonyl)-1H-pyrazol-4-yl)pyrimidin-4-yl)amino)pyridin-3-yl)methanone]: the IC50 at EGFR del19/C797S was 536 nM; on EGFR del19/T790M/C797S, 72 nM.
Consider `O=C(c1cnc(Nc2ccnc(-c3cnn(S(=O)(=O)C4CC4)c3)n2)cc1NCc1cnn(CCF)c1)C1CC1` [Example 17, Cyclopropyl(6-((2-(1-(cyclopropylsulfonyl)-1H-pyrazol-4-yl)pyrimidin-4-yl)amino)-4-(((1-(2-fluoroethyl)-1H-pyrazol-4-yl)methyl)amino)pyridin-3-yl)methanone], for which the results for the IC50 on EGFR del19/C797S, on EGFR L858R/T790M/C797S and on EGFR del19/T790M/C797S were 1 nM, 15.5 nM and 10.9 nM, respectively.
In the case of `CN(C)Cc1ccc(CNc2cc(Nc3ccnc(-c4cnn(S(=O)(=O)C5CC5)c4)n3)ncc2C(=O)C2CC2)cn1` [Example 19, Cyclopropyl(6-((2-(1-(cyclopropylsulfonyl)-1H-pyrazol-4-yl)pyrimidin-4-yl)amino)-4-(((6-((dimethylamino)methyl)pyridin-3-yl)methyl)amino)pyridin-3-yl)methanone], the IC50 was 682 nM on EGFR wildtype (WT), 159 nM on EGFR del19/C797S, 3.8 nM on EGFR L858R/T790M/C797S and 3.1 nM on EGFR del19/T790M/C797S.
Regarding `O=C(c1cnc(Nc2ccnc(-c3cnn(S(=O)(=O)C4CC4)c3)n2)cc1NCCCC(F)F)C1CC1` [Example 5, Cyclopropyl(6-((2-(1-(cyclopropylsulfonyl)-1H-pyrazol-4-yl)pyrimidin-4-yl)amino)-4-((4,4-difluorobutyl)amino)pyridin-3-yl)methanone], the IC50 at EGFR wildtype (WT) is 2970 nM; at EGFR del19/C797S it was 132 nM; on EGFR L858R/T790M/C797S it was 18 nM; on EGFR del19/T790M/C797S, 1.8 nM.
Taken in the same sequence, the figures for `CCCNc1cc(Nc2ccnc(-c3cnn(S(=O)(=O)C4CC4)c3)n2)ncc1C(C)=O` [Example 45, 1-(6-((2-(1-(Cyclopropylsulfonyl)-1H-pyrazol-4-yl)pyrimidin-4-yl)amino)-4-(propylamino)pyridin-3-yl)ethan-1-one] were 751 nM, 205 nM, 3.1 nM and 0.9 nM.
Consider `O=C(c1cnc(Nc2ccnc(-c3cnn(S(=O)(=O)C4CC4)c3)n2)cc1NCCF)C1CC1` [Example 3, Cyclopropyl(6-((2-(1-(cyclopropylsulfonyl)-1H-pyrazol-4-yl)pyrimidin-4-yl)amino)-4-((2-fluoroethyl)amino)pyridin-3-yl)methanone], for which the IC50 on EGFR wildtype (WT) amounted to 4200 nM; at EGFR del19/C797S it was 232 nM; on EGFR L858R/T790M/C797S it was 5.4 nM; on EGFR del19/T790M/C797S it was 0.9 nM.
Take `CC(C)Oc1cc(Nc2ccnc(-c3cnn(S(=O)(=O)C4CC4)c3)n2)ncc1NC(=O)C1CC1` [Example 42, N-(6-((2-(1-(Cyclopropylsulfonyl)-1H-pyrazol-4-yl)pyrimidin-4-yl)amino)-4-isopropoxypyridin-3-yl)cyclopropanecarboxamide]: the IC50 on EGFR wildtype (WT) was 123 nM; on EGFR del19/C797S it was 213 nM; at EGFR L858R/T790M/C797S, 10.5 nM; at EGFR del19/T790M/C797S it was 1 nM.
As to `CC(O)C(C)(C)Nc1cc(Nc2ccnc(-c3cnn(S(=O)(=O)C4CC4)c3)n2)ncc1C(=O)C1CC1` (stereo not shown) [Example 12, Cyclopropyl(6-((2-(1-(cyclopropylsulfonyl)-1H-pyrazol-4-yl)pyrimidin-4-yl)amino)-4-((3-hydroxy-2-methylbutan-2-yl)amino)pyridin-3-yl)methanone], the IC50 at EGFR wildtype (WT) came to 228 nM; at EGFR del19/C797S, 58.2 nM; on EGFR L858R/T790M/C797S it was 0.6 nM; at EGFR del19/T790M/C797S it was 0.4 nM.
The matching figures for `O=C(c1cnc(Nc2ccnc(-c3cnn(S(=O)(=O)C4CC4)c3)n2)cc1NCCCCF)C1CC1` [Example 4, Cyclopropyl(6-((2-(1-(cyclopropylsulfonyl)-1H-pyrazol-4-yl)pyrimidin-4-yl)amino)-4-((4-fluorobutyl)amino)pyridin-3-yl)methanone]: 2400 nM, 83.6 nM, 11.6 nM and 1.3 nM.
For `O=C(c1cnc(Nc2ccnc(-c3cnn(S(=O)(=O)C4CC4)c3)n2)cc1NCC1CCN(CC2CC2)CC1)C1CC1` [Example 18, Cyclopropyl(4-(((1-(cyclopropylmethyl)piperidin-4-yl)methyl)amino)-6-((2-(1-(cyclopropylsulfonyl)-1H-pyrazol-4-yl)pyrimidin-4-yl)amino)pyridin-3-yl)methanone], the IC50 at EGFR del19/C797S amounted to 1 nM; at EGFR L858R/T790M/C797S, 17.2 nM; at EGFR del19/T790M/C797S it was 13.5 nM.
For the compound `CC(C)Nc1cc(Nc2ccnc(-c3cnn(S(=O)(=O)C4CC4)c3)n2)ncc1C(=O)NCC(F)F` [Example 78, 6-((2-(1-(Cyclopropylsulfonyl)-1H-pyrazol-4-yl)pyrimidin-4-yl)amino)-N-(2,2-difluoroethyl)-4-(isopropylamino)nicotinamide], the IC50 was determined as 1140 nM on EGFR wildtype (WT), 225 nM on EGFR del19/C797S and 14.9 nM on EGFR del19/T790M/C797S.

The record behind these values is US11945798B2, “Substituted aminopyridine compounds as EGFR inhibitors” (YUHAN CORPORATION, priority 2021, dated 2024).
